These are literature values, as cited in paper PMC6044787 (ACS Omega, 2017).

Molecules are shown by their SMILES.

The subject of the series is AChE.

Consider `C[n+]1ccc2c(c1)[nH]c1ccc(Cl)cc12` [Compound 8, nostocarboline], for which the half-inhibitory concentration (IC50) (commonly the midpoint of a concentration-inhibition curve) is 5.3 µM.
